Key:
[1] = molecular target: T1, rat microsomal oxido-squalene cyclase (Rattus norvegicus, UniProt P48450); experiment: In vitro test to measure inhibition of oxido-squalene cyclase; assay type: biochemical; settings: at a concentration of 0.1 μM; rat liver microsomes
T1 construct: Microsomes are prepared from rat liver according to methods known in the art; from tissue; host or cells: rat liver microsomes
T1 sequence (P48450 1-733): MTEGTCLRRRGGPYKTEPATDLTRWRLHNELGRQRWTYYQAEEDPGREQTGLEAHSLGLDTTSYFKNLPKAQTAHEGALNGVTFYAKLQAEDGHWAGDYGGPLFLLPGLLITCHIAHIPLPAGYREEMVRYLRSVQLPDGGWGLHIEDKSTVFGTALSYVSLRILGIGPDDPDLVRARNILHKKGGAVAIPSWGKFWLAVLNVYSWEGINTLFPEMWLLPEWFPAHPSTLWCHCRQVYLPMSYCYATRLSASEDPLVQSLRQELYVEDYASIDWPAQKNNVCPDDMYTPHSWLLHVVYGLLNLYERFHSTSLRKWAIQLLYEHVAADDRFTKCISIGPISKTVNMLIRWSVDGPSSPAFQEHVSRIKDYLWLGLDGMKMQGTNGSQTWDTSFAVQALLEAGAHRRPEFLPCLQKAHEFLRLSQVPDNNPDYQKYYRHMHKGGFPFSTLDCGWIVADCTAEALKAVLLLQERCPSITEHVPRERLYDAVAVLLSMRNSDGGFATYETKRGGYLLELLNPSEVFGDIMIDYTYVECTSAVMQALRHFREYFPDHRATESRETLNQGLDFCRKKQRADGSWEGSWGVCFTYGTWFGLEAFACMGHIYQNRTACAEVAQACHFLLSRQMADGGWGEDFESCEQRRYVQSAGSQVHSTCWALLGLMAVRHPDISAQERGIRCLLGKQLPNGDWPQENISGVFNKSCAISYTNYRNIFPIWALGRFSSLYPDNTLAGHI
Experimental: (a) In Vitro Test to Measure Inhibition of Oxido-Squalene Cyclase
This test measures the inhibition of microsomal oxido-squalene cyclase in vitro by compounds at set concentrations in the incubation medium.
Microsomes are prepared from rat liver according to methods known in the art, for example, the method described in published European Patent Application No 324,421 and stored in liquid nitrogen prior to assay. Assay vials are kept at 37° C. throughout the incubation. The microsomes typically contain 15-20 mg of protein per ml of microsomes. For assay, 1 ml of microsomes are diluted by the addition of 722 μl of 50 mM phosphate buffer pH 7.4.
Phosphate buffered Tween 80 (polyoxyethylene sorbitan […]) is prepared by adding 0.1 g Tween 80 to 100 ml of 50 mM phosphate buffer.
A stock solution of oxido-squalene is made up as a solution in ethanol (0.65 mg. ml.^−1). 18 μl of radio-labelled oxido-squalene (1 μCi.ml^−1) is evaporated to dryness under a stream of nitrogen and redissolved in 1 ml of ethanol and 1 ml of the stock solution of oxido-squalene is added.
The test compound is dissolved in dimethyl sulphoxide to give a 10^−4M stock solution. […]
The samples are then placed in a water bath at 80° C. for 2 hours to saponify. […] Reaction rate is measured as the conversion of oxido-squalene to lanosterol, and the effects of test compounds are expressed as an inhibition of this process.

[2] = system: rat cholesterol biosynthesis; experiment: In vivo test to measure inhibition of oxido-squalene cyclase / cholesterol biosynthesis in the rat; settings: dosed at 2 mg/kg, oral
Experimental: (b) In Vivo Test to Measure Inhibition of Oxido-Squalene Cyclase
The ability of a compound to inhibit oxido-squalene cyclase and/or inhibit cholesterol biosynthesis may be assessed by a routine laboratory procedure carried out in the rat. The test involves administration of the compound to rats on a reversed lighting regimen. Female rats (35-55 g) are housed in reverse lighting conditions (red light from 0200 h-1400 h) for a period of about 2 weeks prior to test. Animals are allowed free access to chow and drinking water throughout this period. At test, animals should weigh 100-140 g. The rats are dosed orally with the compound (typically 10-50 mg/kg) formulated in apolyethylene glycol/hydroxypropylmethyl cellulose mix. After 1 hour the rats are given […] sodium mevalonate (15 μCi/kg) intraperitoneally. Two hours after administration of the compound the rats are terminated and a piece of liver removed and weighed. The tissue is saponified at 80° C. for 2 hours in an ethanolic/potassium hydroxide solution (80% w/v aqueous KOH diluted 1:10 with ethanol). Water (2 ml) is added and the mixture extracted with iso-hexane (2×5 ml). The organic extracts are combined, evaporated to dryness under a stream of nitrogen and the residue is dissolved in a mixture of acetonitrile/iso-propanol (300 μl). […] The radio-label content of each fraction is assessed using a radio chemical flow detector. […]

Row | SMILES | melting point | inhibition of rat microsomal oxido-squalene cyclase [1] | inhibition of rat cholesterol biosynthesis [2]
1 | O=C(C1CCN(S(=O)(=O)c2ccc(Br)cc2)CC1)N1CCC(c2ccncc2)CC1 | 154 to 155 °C |  | 
2 | O=C(N1CCC(c2ccncc2)CC1)N1CCN(S(=O)(=O)c2ccc(Br)cc2)CC1 [Example 2] |  | about 94% | about 85%
